Assays:
ECHCG [1] = test: Herbicidal pre-emergence action - Part I; type: in vivo, Echinochloa crus-galli; conditions: visual grading after ca. 3 weeks vs untreated controls
Procedure, shortened: (§1)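 In this greenhouse pre-emergence test, formulated compounds with 0.5% additive were applied at 1280 g/ha or below onto the soil covering sown weed seeds in sandy loam. After roughly three weeks, plant damage was scored by eye in percent versus untreated controls.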

LOLRI [2] = test: Herbicidal pre-emergence action - Part I; type: in vivo, Lolium rigidum; conditions: visual grading after ca. 3 weeks vs untreated controls
From the text: (§2) Seeds of mono- and dicotyledonous weed plants were sown in plastic pots (double sowings with one species of mono- and one species of dicotyledonous weed plants per pot), in sandy loam, and covered with soil. The compounds according to the invention, formulated in the form of wettable powders (WP) or as emulsifiable concentrates (EC), were applied to the surface of the covering soil as aqueous suspension or emulsion, with the addition of 0.5% of an additive, at an application rate of 600 1 of water per hectare (converted). Following treatment, the pots were placed in a greenhouse and kept under optimum growth conditions for the test plants. The visual grading of the damage to the test plants was carried out after ca. 3 weeks in comparison to untreated controls (herbicidaleffectinpercent(%):100%effect=plantshavediedoff,0%effect=ascontrolplants). [formula]
(§3) Tables A1 to A12, below, show the effects of selected compounds of the general formula (I) according to table 1 on various harmful plants and an application rate corresponding to 1280 g/ha or below obtained by the experimental procedure mentioned above. Table A1: pre-emergence activity at 1280g/ha against ABUTH in %

MATIN [3] = test: Herbicidal pre-emergence action - Part I; type: in vivo, Matricaria inodora; conditions: visual grading after ca. 3 weeks vs untreated controls
From the text: as §2, §3

SETVI [4] = test: Herbicidal pre-emergence action - Part I; type: in vivo, Setaria viridis; conditions: visual grading after ca. 3 weeks vs untreated controls
From the text: as §2, §3

STEME [5] = test: Herbicidal pre-emergence action - Part I; type: in vivo, Stellaria media; conditions: visual grading after ca. 3 weeks vs untreated controls
Procedure, shortened: as §1

POAAN [6] = test: Herbicidal pre-emergence action - Part I; type: in vivo, Poa annua; conditions: visual grading after ca. 3 weeks vs untreated controls
From the text: as §2, §3

AMARE [7] = test: Herbicidal pre-emergence action - Part I; type: in vivo, Amaranthus retroflexus; conditions: visual grading after ca. 3 weeks vs untreated controls
Procedure, shortened: as §1

KCHSC [8] = test: Herbicidal pre-emergence action - Part I; type: in vivo, Kochia scoparia
From the text: as §2, §3

DIGSA [9] = test: Herbicidal pre-emergence action - Part I; type: in vivo, Digitaria sanguinalis; conditions: visual grading after ca. 3 weeks vs untreated controls
From the text: as §2, §3

ABUTH = test: Herbicidal post-emergence action - Part I; type: in vivo, Abutilon theophrasti; conditions: one-leaf stage, rated visually after about 3 weeks vs untreated controls
Protocol: (§4) Seeds of mono- and dicotyledonous weed plants were placed in plastic pots in sandy loam soil (doubly sown with in each case one species of mono- or dicotyledonous weed plants per pot), covered with soil and cultivated in a greenhouse under controlled growth conditions. 2 to 3 weeks after sowing, the test plants were treated at the one-leaf stage. The compounds of the invention, formulated in the form of wettable powders (WP) or as emulsion concentrates (EC), were applied onto the green parts of the plants as aqueous suspension or emulsion with addition of 0.5% additive at a water application rate of 600 liters per hectare (converted). After the test plants had been kept in the greenhouse under optimum growth conditions for about 3 weeks, the activity of the preparations was rated visually in comparison to untreated controls. For example, 100% activity = the plants have died, 0% activity = like control plants. Tables B1 to B12, below, show the effects of selected compounds of the general formula (I) according to table 1 on various harmful plants and an application rate corresponding to 1280 g/ha or below obtained by the experimental procedure mentioned above. Table B1a: post-emergence activity at 1280g/ha against ABUTH in %

ECHCG [10] = test: Herbicidal post-emergence action - Part I; type: in vivo, Echinochloa crus-galli; conditions: 1280 g/ha, one-leaf stage, rated visually after about 3 weeks vs untreated controls
Protocol: as §4

MATIN [11] = test: Herbicidal post-emergence action - Part I; type: in vivo, Matricaria inodora; conditions: 1280 g/ha, one-leaf stage, rated visually after about 3 weeks vs untreated controls
Protocol: as §4

SETVI [12] = test: Herbicidal post-emergence action - Part I; type: in vivo, Setaria viridis; conditions: one-leaf stage, rated visually after about 3 weeks vs untreated controls
Protocol: as §4

STEME [13] = test: Herbicidal post-emergence action - Part I; type: in vivo, Stellaria media; conditions: one-leaf stage, rated visually after about 3 weeks vs untreated controls
Procedure, shortened: (§5)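 Activity was scored visually as % damage (100% = dead, 0% = like untreated) about 3 weeks after treatment. Plants at the one-leaf stage, 2-3 weeks old, were sprayed with WP/EC formulations plus 0.5% additive (600 L/ha water, up to 1280 g/ha). Plants were grown in sandy loam in a greenhouse.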

POAAN [14] = test: Herbicidal post-emergence action - Part I; type: in vivo, Poa annua; conditions: one-leaf stage, rated visually after about 3 weeks vs untreated controls
Protocol: as §4

AMARE [15] = test: Herbicidal post-emergence action - Part I; type: in vivo, Amaranthus retroflexus; conditions: one-leaf stage, rated visually after about 3 weeks vs untreated controls
Procedure, shortened: as §5

ALOMY [16] = test: Herbicidal post-emergence action - Part I; type: in vivo, Alopecurus myosuroides; conditions: one-leaf stage, rated visually after about 3 weeks vs untreated controls
Protocol: as §4

KCHSC [17] = test: Herbicidal post-emergence action - Part I; type: in vivo, Kochia scoparia; conditions: one-leaf stage, rated visually after about 3 weeks vs untreated controls
Procedure, shortened: as §5

VERPE = test: Herbicidal post-emergence action - Part I; type: in vivo, Veronica persica; conditions: one-leaf stage, rated visually after about 3 weeks vs untreated controls
Procedure, shortened: as §5

ALOMY [18] = test: Herbicidal pre-emergence action - Part I; type: in vivo, Alopecurus myosuroides; conditions: visual grading after ca. 3 weeks vs untreated controls
From the text: as §2, §3

LOLRI [19] = test: Herbicidal post-emergence action - Part I; type: in vivo, Lolium rigidum; conditions: one-leaf stage, rated visually after about 3 weeks vs untreated controls
Protocol: as §4

DIGSA [20] = test: Herbicidal post-emergence action - Part I; type: in vivo, Digitaria sanguinalis; conditions: 1280 g/ha, one-leaf stage, rated visually after about 3 weeks vs untreated controls
Protocol: as §4

[21] = Table A10a, 1280 g/ha, visual grading after ca. 3 weeks vs untreated controls

SMILES	pre-emergence activity at 320g/ha against ECHCG in % (ECHCG [1]) [%]	pre-emergence activity at 1280g/ha against ECHCG in % (ECHCG [1]) [%]	pre-emergence activity at 1280g/ha against LOLRI in % (LOLRI [2]) [%]	pre-emergence activity at 320g/ha against MATIN in % (MATIN [3]) [%]	pre-emergence activity at 1280g/ha against MATIN in % (MATIN [3]) [%]	pre-emergence activity at 1280g/ha and against SETVI in % (SETVI [4]) [%]	pre-emergence activity at 320g/ha against STEME in % (STEME [5]) [%]	pre-emergence activity at 1280g/ha against STEME in % (STEME [5]) [%]	pre-emergence activity at 320g/ha and against POAAN in % (POAAN [6]) [%]	pre-emergence activity at 1280g/ha and against POAAN in % (POAAN [6]) [%]	pre-emergence activity at 1280g/ha against AMARE in % (AMARE [7]) [%]	pre-emergence activity at 1280g/ha against KCHSC in % (KCHSC [8]; [21]) [%]	pre-emergence activity at 1280g/ha against DIGSA in % (DIGSA [9]) [%]	post-emergence activity at 1280g/ha against ECHCG in % (ECHCG [10]) [%]	post-emergence activity at 1280g/ha against SETVI in % (SETVI [12]) [%]	post-emergence activity at 1280g/ha against STEME in % (STEME [13]) [%]	post-emergence activity at 1280g/ha against AMARE in % (AMARE [15]) [%]	post-emergence activity at 1280g/ha against KCHSC in % (KCHSC [17]) [%]	post-emergence activity at 1280g/ha against VERPE in % (VERPE) [%]	further results
Cc1ccsc1C1=NOC2(CCCN(Cc3ccccc3F)C2=O)C1 (racemic) [Compound I-1, 7-(2-Fluorobenzyl)-3-(3-methyl-2-thienyl)-1-oxa-2,7-diazaspiro[4.5]dec-2-en-6-one]	100	100	90	90	100	100	90	90	100	100	90	90	100	90	90	90	90	90	90	pre-emergence activity at 320g/ha and against SETVI in % (SETVI [4]; 320 g/ha): 100%; pre-emergence activity at 80g/ha against STEME in % (STEME [5]; 80 g/ha): 90%; pre-emergence activity at 320g/ha against AMARE in % (AMARE [7]; 320 g/ha): 90%; pre-emergence activity at 1280g/ha against KCHSC in % (KCHSC [8]; Table A10b, title 1280g/ha, application rate column prints 320 g/ha, visual grading after ca. 3 weeks vs untreated controls): 90%; post-emergence activity at 320g/ha against ABUTH in % (ABUTH; 320 g/ha): 90%; post-emergence activity at 1280g/ha against ABUTH in % (ABUTH; 1280 g/ha): 90%; post-emergence activity at 1280g/ha against MATIN in % (MATIN [11]): 90%; post-emergence activity at 320g/ha against SETVI in % (SETVI [12]; 320 g/ha): 90%; post-emergence activity at 320g/ha against STEME in % (STEME [13]; 320 g/ha): 90%; post-emergence activity at 80g/ha against POAAN in % (POAAN [14]; 80 g/ha): 90%; post-emergence activity at 320g/ha against POAAN in % (POAAN [14]; 320 g/ha): 90%; post-emergence activity at 1280g/ha against POAAN in % (POAAN [14]; 1280 g/ha): 90%; post-emergence activity at 1280g/ha against ALOMY in % (ALOMY [16]): 90%; post-emergence activity at 320g/ha against KCHSC in % (KCHSC [17]; 320 g/ha): 90%; post-emergence activity at 320g/ha against VERPE in % (VERPE; 320 g/ha): 90%
N#Cc1ncccc1C1=NOC2(CCN(Cc3ccccc3F)C2=O)C1 (racemic) [Compound I-35]	90	100	90	90	90	100	90	90	100	100	90	90	100	90	90	90	90	90	90	pre-emergence activity at 320g/ha against LOLRI in % (LOLRI [2]; 320 g/ha): 90%; pre-emergence activity at 1280g/ha against ALOMY in % (ALOMY [18]): 90%; pre-emergence activity at 1280g/ha against KCHSC in % (KCHSC [8]; 1280 g/ha, 504 h): 90%; pre-emergence activity at 320g/ha against DIGSA in % (DIGSA [9]; 320 g/ha): 100%; post-emergence activity at 1280g/ha against LOLRI in % (LOLRI [19]): 90%; post-emergence activity at 320g/ha against AMARE in % (AMARE [15]; 320 g/ha): 90%; post-emergence activity at 1280g/ha against DIGSA in % (DIGSA [20]): 90%

From patent EP4509511A1, “SUBSTITUTED SPIRO-ISOXAZOLINYL LACTAMS, SALTS THEREOF AND THEIR USE AS HERBICIDALLY ACTIVE SUBSTANCES” (Bayer Aktiengesellschaft, priority 2023, dated 2025)
